Data: PubChem BioAssay AID328 (DTP/NCI, 2004)
Several values for one entry are separate records, joined by “and”; a condition that tells them apart may be missing. Equal entries are not always repeated. Toxic doses and inconclusive results are not listed.

Test system: BDF1 mice, P388 leukemia ip, median survival T/C
Experiment: NCI In Vivo Anticancer Drug Screen. Data for tumor model P388 Leukemia (intraperitoneal) in B6D2F1 (BDF1) mice
Details: endpoint: median survival time, higher = longer survival
Outline: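 Vehicle-dosed animals serve as the reference; survival of compound-dosed, tumour-implanted mice is divided by it.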

[1] = dose: 25.0 mg/kg/injection, schedule: Q04DX003 (ip), vehicle: saline with Tween-80
[2] = dose: 50.0 mg/kg/injection, schedule: Q04DX003 (ip), vehicle: Klucel (hydroxypropylcellulose) (HPC)
[3] = dose: 200.0 mg/kg/injection, schedule: Q04DX003 (ip), vehicle: Klucel (hydroxypropylcellulose) (HPC)
[4] = dose: 50.0 mg/kg/injection, schedule: Q01DX009 (ip), vehicle: saline with Tween-80
[5] = dose: 50.0 mg/kg/injection, schedule: Q04DX003 (ip), vehicle: saline with Tween-80
[6] = dose: 100.0 mg/kg/injection, schedule: Q01DX009 (ip), vehicle: saline with Tween-80
[7] = dose: 100.0 mg/kg/injection, schedule: Q04DX003 (ip), vehicle: saline with Tween-80
[8] = dose: 50.0 mg/kg/injection, schedule: Q01DX009 (ip), vehicle: saline
[9] = dose: 100.0 mg/kg/injection, schedule: Q01DX009 (ip), vehicle: saline
[10] = dose: 200.0 mg/kg/injection, schedule: Q01DX009 (ip), vehicle: saline
[11] = dose: 400.0 mg/kg/injection, schedule: Q01DX009 (ip), vehicle: saline
[12] = dose: 25.0 mg/kg/injection, schedule: Q01DX009 (ip), vehicle: saline with Tween-80
[13] = dose: 100.0 mg/kg/injection, schedule: Q01DX001 (ip), vehicle: saline with Tween-80

CCOC(=O)C1C(=O)C(CN(CCCl)CCCl)C(=O)C(C(=O)OCC)C1c1ccc(O)cc1 (stereo not drawn)
T/C (dose: 0.75 mg/kg/injection, schedule: Q01DX009 (ip), vehicle: Klucel (hydroxypropylcellulose) (HPC)): 180 % of control | T/C (dose: 1.5 mg/kg/injection, schedule: Q01DX009 (ip), vehicle: Klucel (hydroxypropylcellulose) (HPC)): 190 % of control | T/C (dose: 3.0 mg/kg/injection, schedule: Q01DX009 (ip), vehicle: Klucel (hydroxypropylcellulose) (HPC)): 183 % of control | T/C (dose: 3.13 mg/kg/injection, schedule: Q04DX003 (ip), vehicle: saline with Tween-80): 153 % of control | T/C (dose: 6.0 mg/kg/injection, schedule: Q01DX009 (ip), vehicle: Klucel (hydroxypropylcellulose) (HPC)): 266 % of control | T/C (dose: 6.25 mg/kg/injection, schedule: Q01DX009 (ip), vehicle: Klucel (hydroxypropylcellulose) (HPC)): 185 % of control | T/C (dose: 6.25 mg/kg/injection, schedule: Q04DX003 (ip), vehicle: Klucel (hydroxypropylcellulose) (HPC)): 180 % of control | T/C (dose: 6.25 mg/kg/injection, schedule: Q04DX003 (ip), vehicle: saline with Tween-80): 160 % of control | T/C (dose: 11.0 mg/kg/injection, schedule: Q01DX009 (ip), vehicle: Klucel (hydroxypropylcellulose) (HPC)): 209 % of control | T/C (dose: 12.5 mg/kg/injection, schedule: Q01DX009 (ip), vehicle: Klucel (hydroxypropylcellulose) (HPC)): 269 % of control | T/C (dose: 12.5 mg/kg/injection, schedule: Q04DX003 (ip), vehicle: Klucel (hydroxypropylcellulose) (HPC)): 195 % of control | T/C (dose: 12.5 mg/kg/injection, schedule: Q04DX003 (ip), vehicle: saline with Tween-80): 225 % of control | T/C (dose: 16.5 mg/kg/injection, schedule: Q01DX009 (ip), vehicle: Klucel (hydroxypropylcellulose) (HPC)): 232 % of control | T/C (dose: 20.0 mg/kg/injection, schedule: Q04DX003 (ip), vehicle: Klucel (hydroxypropylcellulose) (HPC)): 105 % of control | T/C (dose: 25.0 mg/kg/injection, schedule: Q01DX009 (ip), vehicle: Klucel (hydroxypropylcellulose) (HPC)): 243 % of control and 95 % of control and 190 % of control | T/C (dose: 25.0 mg/kg/injection, schedule: Q04DX003 (ip), vehicle: Klucel (hydroxypropylcellulose) (HPC)): 182 % of control | T/C [1]: 260 % of control and 267 % of control | T/C (dose: 37.5 mg/kg/injection, schedule: Q01DX009 (ip), vehicle: Klucel (hydroxypropylcellulose) (HPC)): 103 % of control | T/C [2]: 89 % of control | T/C (dose: 80.0 mg/kg/injection, schedule: Q04DX003 (ip), vehicle: Klucel (hydroxypropylcellulose) (HPC)): 155 % of control | T/C (dose: 118.0 mg/kg/injection, schedule: Q04DX003 (ip), vehicle: Klucel (hydroxypropylcellulose) (HPC)): 160 % of control | T/C (dose: 177.0 mg/kg/injection, schedule: Q04DX003 (ip), vehicle: Klucel (hydroxypropylcellulose) (HPC)): 175 % of control | T/C [3]: 159 % of control | T/C (dose: 266.0 mg/kg/injection, schedule: Q04DX003 (ip), vehicle: Klucel (hydroxypropylcellulose) (HPC)): 170 % of control | T/C (dose: 400.0 mg/kg/injection, schedule: Q04DX003 (ip), vehicle: Klucel (hydroxypropylcellulose) (HPC)): 180 % of control and 195 % of control

BrCC(Br)CBr
T/C [4]: 104 % of control | T/C [5]: 100 % of control | T/C [6]: 122 % of control | T/C [7]: 100 % of control | T/C (dose: 200.0 mg/kg/injection, schedule: Q04DX003 (ip), vehicle: saline with Tween-80): 104 % of control

O=S(=O)(OC1=CCCCC1)C(F)(F)F
T/C [8]: 104 % of control | T/C [9]: 107 % of control | T/C [10]: 109 % of control

CCC(C)(CCC(=O)O)c1ccccc1 (stereo not drawn)
T/C (dose: 100.0 mg/kg/injection, schedule: Q04DX002 (ip), vehicle: saline with Tween-80): 97 % of control | T/C (dose: 200.0 mg/kg/injection, schedule: Q04DX002 (ip), vehicle: saline with Tween-80): 103 % of control | T/C (dose: 400.0 mg/kg/injection, schedule: Q04DX002 (ip), vehicle: saline with Tween-80): 106 % of control

CCOC(=O)C1CSC2(CCCCC2)N1 (stereo not drawn)
T/C [8]: 92 % of control | T/C [9]: 94 % of control | T/C [10]: 109 % of control

CC(=O)Oc1ccc[nH]c1=O
T/C [10]: 100 % of control | T/C (dose: 264.0 mg/kg/injection, schedule: Q01DX009 (ip), vehicle: saline with Tween-80): 115 % of control | T/C [11]: 150 % of control | T/C (dose: 600.0 mg/kg/injection, schedule: Q01DX009 (ip), vehicle: saline with Tween-80): 115 % of control | T/C (dose: 600.0 mg/kg/injection, schedule: Q01DX009 (ip), vehicle: saline): 95 % of control

CCOc1ccc(NC(=O)OCCN2CCN(CCc3ccccc3)C(C)C2)cc1 (stereo not drawn)
T/C [4]: 94 % of control | T/C [6]: 98 % of control

O=C1OP2(c3ccccc3)(OC(=O)c3ccccc32)c2ccccc21
T/C [4]: 91 % of control | T/C [6]: 96 % of control

COC(=O)N1c2ccccc2C=CC1C#N (stereo not drawn)
T/C (dose: 12.5 mg/kg/injection, schedule: Q01DX009 (ip), vehicle: saline with Tween-80): 100 % of control | T/C [12]: 90 % of control and 100 % of control | T/C [1]: 100 % of control | T/C [4]: 90 % of control | T/C [5]: 109 % of control | T/C [6]: 100 % of control | T/C [7]: 100 % of control

CC1C=CC(=O)O1 (stereo not drawn)
T/C [8]: 105 % of control | T/C [9]: 105 % of control | T/C [10]: 112 % of control | T/C [11]: 112 % of control

COc1c2ccoc2nc2c(OC)c3c(cc12)OCO3
T/C (dose: 12.5 mg/kg/injection, schedule: Q01DX009 (ip), vehicle: saline): 109 % of control | T/C (dose: 25.0 mg/kg/injection, schedule: Q01DX009 (ip), vehicle: saline): 107 % of control | T/C [8]: 109 % of control

N#C/C(=C\c1ccc(O)cc1)c1ccc([N+](=O)[O-])cc1
T/C (dose: 25.0 mg/kg/injection, schedule: Q01DX001 (ip), vehicle: saline): 98 % of control | T/C (dose: 50.0 mg/kg/injection, schedule: Q01DX001 (ip), vehicle: saline): 100 % of control | T/C [13]: 97 % of control | T/C (dose: 100.0 mg/kg/injection, schedule: Q01DX001 (ip), vehicle: saline): 96 % of control

COC(=O)c1ccccc1C1(c2ccccc2C(=O)OC)OC(=O)c2ccccc21
T/C (dose: 100.0 mg/kg/injection, schedule: Q01DX009 (ip), vehicle: Klucel (hydroxypropylcellulose) (HPC)): 100 % of control | T/C (dose: 200.0 mg/kg/injection, schedule: Q01DX009 (ip), vehicle: Klucel (hydroxypropylcellulose) (HPC)): 100 % of control | T/C (dose: 400.0 mg/kg/injection, schedule: Q01DX009 (ip), vehicle: Klucel (hydroxypropylcellulose) (HPC)): 100 % of control

COCOS(C)(=O)=O
T/C (dose: 100.0 mg/kg/injection, schedule: Q04DX003 (ip), vehicle: saline): 95 % of control | T/C (dose: 200.0 mg/kg/injection, schedule: Q04DX003 (ip), vehicle: saline): 120 % of control

O=C(NC(=O)c1c(F)cccc1F)Nc1cccc(C(F)(F)F)c1
T/C [12]: 97 % of control | T/C [4]: 99 % of control | T/C [6]: 97 % of control

CCCCCCCCCCC(O)CCCCCCCCCC
T/C [4]: 100 % of control | T/C [6]: 95 % of control | T/C (dose: 200.0 mg/kg/injection, schedule: Q01DX009 (ip), vehicle: saline with Tween-80): 90 % of control

CCCC/C=C/CO
T/C [4]: 108 % of control | T/C [6]: 103 % of control

O=[N+]([O-])c1ccc(/C=C/c2ncc[nH]2)o1
T/C [2]: 100 % of control | T/C (dose: 100.0 mg/kg/injection, schedule: Q04DX003 (ip), vehicle: Klucel (hydroxypropylcellulose) (HPC)): 100 % of control | T/C [3]: 100 % of control

COC(=O)c1cc(Cl)ccc1OCC(=O)NCc1ccc(Cl)cc1
T/C [13]: 100 % of control | T/C (dose: 200.0 mg/kg/injection, schedule: Q01DX001 (ip), vehicle: saline with Tween-80): 95 % of control | T/C (dose: 400.0 mg/kg/injection, schedule: Q01DX001 (ip), vehicle: saline with Tween-80): 90 % of control

O=C(NO)c1ccc([N+](=O)[O-])cc1
T/C (dose: 240.0 mg/kg/injection, schedule: Q01DX010 (ip), vehicle: water): 92 % of control | T/C (dose: 270.0 mg/kg/injection, schedule: Q01DX010 (ip), vehicle: water): 90 % of control and 113 % of control | T/C (dose: 360.0 mg/kg/injection, schedule: Q01DX010 (ip), vehicle: water): 123 % of control
